Experimental data published in ChEMBL document CHEMBL3039007, “Structure-based identification of OATP1B1/3 inhibitors” (Mol Pharmacol, 2013).

Tests used:
[1] = target: T1, Solute carrier organic anion transporter family member 1B3 (Homo sapiens, UniProt Q9NPD5); conditions: chinese hamster, cho, 10 µM
T1 sequence (Q9NPD5 whole entry): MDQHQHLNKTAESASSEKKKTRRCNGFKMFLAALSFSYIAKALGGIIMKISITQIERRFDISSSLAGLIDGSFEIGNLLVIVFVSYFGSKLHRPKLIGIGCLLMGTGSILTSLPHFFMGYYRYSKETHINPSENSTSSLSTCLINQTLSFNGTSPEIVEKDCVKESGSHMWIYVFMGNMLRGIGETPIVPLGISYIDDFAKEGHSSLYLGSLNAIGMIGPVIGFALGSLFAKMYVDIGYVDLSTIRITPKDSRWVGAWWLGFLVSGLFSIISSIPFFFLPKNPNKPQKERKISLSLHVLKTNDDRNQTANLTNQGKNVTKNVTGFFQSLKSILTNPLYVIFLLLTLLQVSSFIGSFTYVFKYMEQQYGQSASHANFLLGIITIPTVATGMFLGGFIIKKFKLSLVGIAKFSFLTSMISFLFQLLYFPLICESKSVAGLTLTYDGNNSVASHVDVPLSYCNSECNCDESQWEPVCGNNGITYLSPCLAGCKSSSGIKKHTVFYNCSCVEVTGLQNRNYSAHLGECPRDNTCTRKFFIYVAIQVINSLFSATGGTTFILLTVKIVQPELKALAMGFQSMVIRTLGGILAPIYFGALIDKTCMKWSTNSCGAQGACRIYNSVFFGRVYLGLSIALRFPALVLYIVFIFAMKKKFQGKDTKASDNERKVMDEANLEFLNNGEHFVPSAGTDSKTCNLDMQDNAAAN

[2] = target: T2, Solute carrier organic anion transporter family member 1B1 (Homo sapiens, UniProt Q9Y6L6); conditions: chinese hamster, cho, 10 µM
T2 sequence (Q9Y6L6 whole entry): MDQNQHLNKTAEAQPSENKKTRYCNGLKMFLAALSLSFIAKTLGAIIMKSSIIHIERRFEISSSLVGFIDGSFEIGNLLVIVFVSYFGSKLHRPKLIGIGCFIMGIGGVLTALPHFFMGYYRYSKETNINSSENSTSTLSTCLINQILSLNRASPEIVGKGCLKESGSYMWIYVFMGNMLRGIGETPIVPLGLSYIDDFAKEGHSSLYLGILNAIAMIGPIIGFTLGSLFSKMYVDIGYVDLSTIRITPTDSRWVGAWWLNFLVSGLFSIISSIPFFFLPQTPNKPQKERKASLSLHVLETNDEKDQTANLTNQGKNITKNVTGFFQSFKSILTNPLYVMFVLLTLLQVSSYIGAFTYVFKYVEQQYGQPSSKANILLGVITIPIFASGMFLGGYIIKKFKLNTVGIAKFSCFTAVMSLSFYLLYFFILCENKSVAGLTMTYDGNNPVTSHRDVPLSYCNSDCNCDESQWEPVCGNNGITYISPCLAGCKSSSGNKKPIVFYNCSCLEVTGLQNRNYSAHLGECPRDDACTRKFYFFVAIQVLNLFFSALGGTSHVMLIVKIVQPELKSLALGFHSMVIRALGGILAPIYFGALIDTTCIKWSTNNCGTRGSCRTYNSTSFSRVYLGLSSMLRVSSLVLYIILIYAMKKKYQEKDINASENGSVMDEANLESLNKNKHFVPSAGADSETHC

| SMILES | residual activity [1] | residual activity [2] |
| --- | --- | --- |
| CCCCC(=O)Oc1ccccc1C(=O)O [VALERYL SALYCILATE] | 92.91% | 78.97% |
| O=c1cc(-c2ccc(O)cc2)oc2cc(O[C@@H]3O[C@H](CO)[C@@H](O)[C@H](O)[C@H]3O)cc(O)c12 [APIGETRIN] | 134.6% | 204.4% |
| COc1cc(O)c2c(=O)cc(-c3ccc(O)cc3)oc2c1 [GENKWANIN] | 107% | 116.7% |
| CC[S+]([O-])CCSP(=O)(OC)OC (stereo unspecified) [OXDEMETONMETHYL] | 94.08% | 116.8% |
| COc1ccc2cc3[n+](cc2c1OC)CCc1cc2c(cc1-3)OCO2.[Cl-] [BERBERINE CHLORIDE] | 108.4% | 110.4% |
| CC(=O)NCCc1c[nH]c2ccc(O)cc12 [ACETYLSEROTONIN] | 91.29% | 100.7% |
| Oc1ccc(Cl)cc1 [PARACHLOROPHENOL] | 100.4% | 89.66% |
| CCOCN(C(=O)CCl)c1c(C)cccc1CC [ACETOCHLOR] | 84.4% | 74.59% |
| COc1c(CC(=O)c2cc3c(cc2O)OC(C)(C)C(O)C3)ccc2c1C=CC(C)(C)O2 (stereo unspecified) [DIHYDROMUNDULETONE] | 58.7% | 30.26% |
| CC1=C2C(=CO[C@H](C)[C@H]2C)C(O)=C(C(=O)O)C1=O [CITRININ] | 67.29% | 34.39% |
| CC(=O)c1cc2c(cc1O)OC(C)(C)C=C2 | 88.13% | 84.54% |
| CC(C)(Sc1cc(C(C)(C)C)c(O)c(C(C)(C)C)c1)Sc1cc(C(C)(C)C)c(O)c(C(C)(C)C)c1 [PROBUCOL] | 90.56% | 102.2% |
| CC(=O)OCC(=O)[C@@]1(O)CC[C@H]2[C@@H]3CC[C@@H]4C[C@H](O)CC[C@]4(C)[C@H]3C(=O)C[C@@]21C | 80% | 81.64% |
| COc1c2ccccc2nc2occc12 [DICTAMNINE] | 118.6% | 151.5% |
| CC(=O)Oc1ccc2c(c1OC(C)=O)OC[C@]1(O)Cc3c(cc(OC(C)=O)c(OC(C)=O)c3OC(C)=O)[C@H]21 | 111.5% | 101.4% |
| COc1cc(C)c(C(=O)Oc2cc(C)c(C(=O)O)c(O)c2C)c(O)c1C=O [BAEOMYCESIC ACID] | 46.77% | 23.01% |
| N#C/C(=C\c1cccc(O)c1)C(=O)O [alpha-CYANO-3-HYDROXYCINNAMIC ACID] | 89.69% | 102.6% |
| CCc1cn([C@H]2C[C@H](O)[C@@H](CO)O2)c(=O)[nH]c1=O [EDOXUDINE] | 109.7% | 92.48% |
| CO[C@H]1C[C@H](O[C@@H]2/C(C)=C/C[C@@H]3C[C@@H](C[C@]4(CC[C@H](C)[C@@H](C5CCCCC5)O4)O3)OC(=O)[C@@H]3C=C(C)/C(=N/O)[C@H]4OC/C(=C\C=C\[C@@H]2C)[C@]43O)O[C@@H](C)[C@@H]1O [SELAMECTIN] | 93.37% | 98.02% |
| CC1(C)CC[C@]2(C(=O)O)[C@H](O)C[C@]3(C)C(=CC[C@@H]4[C@@]5(C)CC[C@H](O)C(C)(C)[C@@H]5CC[C@]43C)[C@@H]2C1 [ECHINOCYSTIC ACID] | 30.48% | 69.3% |
| CCCN(CCC)C(=O)C(CCC(=O)O)NC(=O)c1ccccc1 (stereo unspecified) [PROGLUMIDE] | 104.8% | 105% |
| C[C@H]1CCCC(=O)CCC/C=C/c2cc(O)cc(O)c2C(=O)O1 [ZEARALENONE] | 91.51% | 55.9% |
| C[N+](C)(C)CC(=O)O.[Cl-] [BETAINE HYDROCHLORIDE] | 113.7% | 82.22% |
| NC(=O)N1c2ccccc2CC(=O)c2ccccc21 [OXCARBAZEPINE] | 85.1% | 71.5% |

| SMILES | residual activity [1] | residual activity [2] |
| --- | --- | --- |
| COc1ccc(-c2oc3ccccc3c(=O)c2O)cc1OC [3-HYDROXY-3',4'-DIMETHOXYFLAVONE] | 106.3% | 119.6% |
| COc1ccc(C(=O)O)c(O)c1OC [2-HYDROXY-3,4-DIMETHOXYBENZOIC ACID] | 82.78% | 82.39% |
| CN(C)CCOC(c1ccc(Cl)cc1)c1ccccn1.O=C(O)/C=C\C(=O)O (stereo unspecified) [CARBINOXAMINE MALEATE] | 96.23% | 85.11% |
| CN1CCCCC1c1ccc(-c2cccnc2)nc1.Cl (stereo unspecified) [ANABASAMINE HYDROCHLORIDE] | 108.2% | 100% |
| O=C(O)CCCN1C(=O)c2cccc3cccc(c23)C1=O | 112.7% | 113.1% |
| O=C(CC[N+](=O)[O-])OC[C@H]1O[C@@H](O)[C@H](OC(=O)CC[N+](=O)[O-])[C@@H](OC(=O)CC[N+](=O)[O-])[C@@H]1OC(=O)CC[N+](=O)[O-] [ENDECAPHYLLIN X] | 82.04% | 80.29% |
| C=C1CCC2C(CC2(C)C)C(=C)CC/C1=N/O (stereo unspecified) [5-HYDROXYIMINOISOCARYOPHYLLENE] | 80.99% | 84.7% |
| CC1(C)S[C@@H]2[C@H](NC(=O)[C@H](NC(=O)N3CCNC3=O)c3ccccc3)C(=O)N2[C@H]1C(=O)[O-].[Na+] [AZLOCILLIN SODIUM] | 85.12% | 96.91% |
| COc1cccc(O)c1O [3-METHOXYCATECHOL] | 107.5% | 98.75% |
| CC1=C(C(=O)O)N2C(=O)[C@@H](NC(=O)[C@H](N)c3ccccc3)[C@H]2SC1 [CEPHALEXIN ANHYDROUS] | 89.2% | 94.03% |
| CN[C@H](CC(=O)O)C(=O)O [N-METHYL-D-ASPARTIC ACID (NMDA)] | 98.22% | 101.6% |
| CC(C)NC(=N)NC(=N)Nc1ccc(Cl)cc1.Cl [PROGUANIL HYDROCHLORIDE] | 114.8% | 77.71% |
| C[N+](C)(C)CCO.[Cl-] [CHOLINE CHLORIDE] | 113.2% | 93.68% |
| CCN1C[C@]2(C)CC[C@H](OC)[C@@]34C1[C@]1(OCO[C@@]15C[C@H](OC)[C@H]1C[C@]3(O)[C@@H]5[C@H]1OC)[C@@H](OC(C)=O)[C@H]24 [DELTALINE] | 103.5% | 88.11% |
| COc1cc(/C=C/C(=O)O)ccc1O [FERULATE] | 82.81% | 60.24% |
| C=CCCCCCCCCCCC/C=C/C(O)COC(C)=O (stereo unspecified) [DEHYDROAVOCATIN-1-ACETATE] | 107.3% | 134.1% |
| CC(=O)O[C@@H]1C[C@H]2C(C)(C)C(=O)CC[C@]2(C)[C@H]2CC[C@@]3(C)[C@H](c4ccoc4)OC(=O)[C@H]4O[C@]43[C@@]21C [DIHYDROGEDUNIN] | 62.45% | 35.54% |
| N=C(N)NOCC[C@H](N)C(=O)O [CANAVANINE] | 91.69% | 101.6% |
| N[C@@H](Cc1c[nH]c2ccccc12)C(=O)O [TRYPTOPHAN] | 97.09% | 93.19% |
| COc1c(O)cccc1O [2-METHOXYRESORCINOL] | 98.72% | 95.14% |
| O=C(O)CCCCCCCCCCCC[C@@H]1C=CCC1 [CHAULMOOGRIC ACID] | 82.39% | 83.53% |
| CC(C)C(=O)Nc1ccc([N+](=O)[O-])c(C(F)(F)F)c1 [FLUTAMIDE] | 133.6% | 130.9% |
| CC(=O)[C@H]1CC[C@H]2[C@@H]3CC[C@H]4C[C@H](O)CC[C@]4(C)[C@H]3CC[C@]12C [BREXANOLONE] | 89.68% | 41.5% |
| O=C(O)[C@H](O)[C@@](O)(Cc1ccc(O)cc1)C(=O)O [PISCIDIC ACID] | 90.37% | 92.25% |
